Our source for the EC50 values is patent publication US20260001914A1, “MACROCYCLIC PEPTIDES TARGETING KRAS” (Merck Sharp & Dohme LLC, priority 2022, published 2026).

*1 amine or outer side, *2 acyl side, *3 side chain or, on linkers, in order; H or OH if unused. Where a SMILES comes first, the peptide text is derived from it. [ ]: non-standard residue; d: D form. cBu(1-CO,cis-3-CH2NH) = O=C([C@H]1C[C@@H](CN[*:1])C1)[*:2]; Phe(4-guanidino) = N=C(N)Nc1ccc(C[C@H](N)C(=O)O)cc1; X44 = C[C@@H](c1ccccc1)[C@@H](C(=O)[*:2])N(C)[*:1]; X22 = CNC(=N)N(C)CCC[C@@H](C(=O)[*:2])N(C)[*:1]; Ala(pyrimidin-5-yl) = N[C@@H](Cc1cncnc1)C(=O)O; NMePhe(3-Me) = CN[C@@H](Cc1cccc(C)c1)C(=O)O; X33 = O=C([C@H](Cc1ccnc(F)c1F)N[*:1])[*:2]; X25 = O=C([C@H](Cc1ccc(F)nc1)N[*:1])[*:2]; X5 = O=C([C@H](Cc1c(F)ccnc1F)N[*:1])[*:2]; Leu(4,5-dehydro) = C=C(C)C[C@H](N)C(=O)O; NMeNva(5,5-F2) = CN[C@@H](CCC(F)F)C(=O)O; X11 = CC(C)(F)CC[C@H](N[*:1])C(=O)[*:2]; X13 = O=C([C@H](Cc1ccncc1F)N[*:1])[*:2]; X30 = O=C([C@H](Cc1ncccc1F)N[*:1])[*:2]; X46 = O=C([C@H](Cc1cccnc1F)N[*:1])[*:2]; NMeAha = CN[C@@H](CCN=[N+]=[N-])C(=O)O; X2 = O=C([C@H](Cc1ccccc1F)O[*:1])[*:2]; X35 = CN([C@@H](CCCF)C(=O)[*:2])[*:1]; Phe(2-F) = N[C@@H](Cc1ccccc1F)C(=O)O; NMe3Pal = CN[C@@H](Cc1cccnc1)C(=O)O; X1 = O=C(C12CC(CN[*:1])(C1)C2)[*:2]; X17 = O=C([C@H](CCCCF)N[*:1])[*:2]; Ala(cPr) = N[C@@H](CC1CC1)C(=O)O; NMeF = CN[C@@H](Cc1ccccc1)C(=O)O; PhLac = O=C(O)[C@@H](O)Cc1ccccc1; X4 = O=C([C@H](CCCF)N[*:1])[*:2]; 3Pal = N[C@@H](Cc1cccnc1)C(=O)O; hLeu = CC(C)CC[C@H](N)C(=O)O; NMeA = CN[C@@H](C)C(=O)O; Nle = CCCC[C@H](N)C(=O)O Some results are limits rather than exact numbers.

The target in this experiment is phosphorylation levels of ERK1/2 in AsPC-1 (homozygous KRAS-G12D) cells (Homo sapiens, UniProt P01116, G12D). Put plainly: Cellular phospho-ERK assay in AsPC-1 cells (Alpha Screen), assay medium without fetal bovine serum.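 Also: signal taken as phospho-ERK over total ERK per well, both detected in one multiplex bead assay, EC50 from four-parameter logistic fit of dose-response curves.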 The format is cell-based. As to conditions: phospho-ERK AlphaScreen, 18 h.
Sequence of phosphorylation levels of ERK1/2 in AsPC-1 (homozygous KRAS-G12D) cells (P01116 1-186 G12D): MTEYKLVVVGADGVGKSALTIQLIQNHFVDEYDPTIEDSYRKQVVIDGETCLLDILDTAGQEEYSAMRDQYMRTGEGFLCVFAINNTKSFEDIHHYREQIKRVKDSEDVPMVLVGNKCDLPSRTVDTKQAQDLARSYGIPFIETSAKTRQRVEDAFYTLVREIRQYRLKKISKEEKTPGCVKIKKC
In turn, `CCCC[C@@H]1NC(=O)[C@H](Cc2ccc(F)nc2)NC(=O)[C@H](C)N(C)C(=O)[C@H](Cc2ccccc2)OC(=O)C23CC(CNC(=O)[C@H](Cc4ccccc4)N(C)C(=O)[C@H](CCCC)NC(=O)[C@H](Cc4ncccc4F)NC1=O)(C2)C3` [compound 228, cyclo(FLac-NMeA-4F3Pal-Nle-2Pal6F-Nle-NMeF-amBCP)] (cyclo([NMeA][X25][Nle][X30][Nle][NMeF][X1][PhLac])) returned an EC50 of more than 50.8 µM.

`CC(C)CC[C@@H]1NC(=O)[C@H](Cc2ccnc(F)c2F)NC(=O)[C@H](CC2CC2)NC(=O)[C@H](Cc2cncnc2)NC(=O)[C@H](C)N(C)C(=O)[C@H](Cc2ccccc2)OC(=O)C23CC(CNC(=O)[C@H](Cc4ccccc4)N(C)C1=O)(C2)C3` [compound 293, cyclo(FLac-NMeA-PyrimAla-cPrA-4Pal23F2-hL-NMeF-amBCP)] (cyclo([Ala(cPr)][X33][hLeu][NMeF][X1][PhLac][NMeA][Ala(pyrimidin-5-yl)])) had an EC50 of 45.5 µM.

Take `C=C(C)C[C@@H]1NC(=O)[C@H](CC2CC2)NC(=O)[C@H](Cc2cncnc2)NC(=O)[C@H](C)N(C)C(=O)[C@H](Cc2ccccc2)OC(=O)C23CC(CNC(=O)[C@H](Cc4ccccc4)N(C)C(=O)[C@H](CCC(C)C)NC1=O)(C2)C3` [compound 287, cyclo(FLac-NMeA-PyrimAla-cPrA-deHLeu-hL-NMeF-amBCP)] (cyclo([Ala(cPr)][Leu(4,5-dehydro)][hLeu][NMeF][X1][PhLac][NMeA][Ala(pyrimidin-5-yl)])): the response was half-maximal at 17.1 µM (EC50).

The molecule `CCCC[C@@H]1NC(=O)[C@H](Cc2ccc(F)nc2)NC(=O)[C@H](C)N(C)C(=O)[C@H](Cc2ccccc2)OC(=O)C23CC(CNC(=O)[C@H](Cc4cccnc4)N(C)C(=O)[C@H](CCCC)NC(=O)[C@H](Cc4ccccc4F)NC1=O)(C2)C3` [compound 235, cyclo(FLac-NMeA-4F3Pal-Nle-Phe2F-Nle-NMe3Pal-amBCP)] (cyclo([NMe3Pal][X1][PhLac][NMeA][X25][Nle][Phe(2-F)][Nle])) gave an EC50 of 11.8 µM.

For the molecule `CC(C)CC[C@@H]1NC(=O)[C@H](Cc2ccccc2F)NC(=O)[C@H](CC2CC2)NC(=O)[C@H](Cc2cncnc2)NC(=O)[C@H](C)N(C)C(=O)[C@H](Cc2ccccc2)OC(=O)C23CC(CNC(=O)[C@H](Cc4ccccc4)N(C)C1=O)(C2)C3` [compound 260, cyclo(FLac-NMeA-PyrimAla-cPrA-Phe2F-hL-NMeF-amBCP)] (cyclo([Ala(cPr)][Phe(2-F)][hLeu][NMeF][X1][PhLac][NMeA][Ala(pyrimidin-5-yl)])), the EC50 was determined as 0.167 µM.

With `CCCC[C@@H]1NC(=O)[C@H](Cc2ccccc2F)NC(=O)[C@H](CCCF)NC(=O)[C@H](Cc2cccnc2)NC(=O)[C@H](C)N(C)C(=O)[C@H](Cc2ccccc2)OC(=O)C23CC(CNC(=O)[C@H](Cc4cccnc4)N(C)C1=O)(C2)C3` [compound 120, cyclo(FLac-NMeA-3Pal-NvaF-Phe2F-Nle-NMe3Pal-amBCP)] (cyclo([3Pal][X4][Phe(2-F)][Nle][NMe3Pal][X1][PhLac][NMeA])), the half-maximal effective concentration (EC50) was more than 50.8 µM.

Molecule `CCCC[C@@H]1NC(=O)[C@H](Cc2cccnc2)NC(=O)[C@H](CCN=[N+]=[N-])N(C)C(=O)[C@H](Cc2ccccc2)OC(=O)C23CC(CNC(=O)[C@H](Cc4cccnc4)N(C)C(=O)[C@H](CCCC)NC(=O)[C@H](Cc4ccccc4F)OC1=O)(C2)C3` [compound 238, cyclo(FLac-NMeDabN3-3Pal-Nle-F2FLac-Nle-NMe3Pal-amBCP)] (cyclo([3Pal][Nle][X2][Nle][NMe3Pal][X1][PhLac][NMeAha])) showed a half-maximal effective concentration (EC50) of 3.48 µM.

`C[C@@H](c1ccccc1)[C@H]1C(=O)NCC23CC(C2)(C3)C(=O)O[C@@H](Cc2ccccc2)C(=O)N(C)[C@@H](C)C(=O)N[C@@H](Cc2cncnc2)C(=O)N[C@@H](CC2CC2)C(=O)N[C@@H](Cc2ccccc2F)C(=O)N[C@@H](CCC(C)(C)F)C(=O)N1C` [compound 340, cyclo(FLac-NMeA-PyrimAla-cPrA-Phe2F-hL3F-NMeSbMeF-amBCP)] (cyclo([Ala(cPr)][Phe(2-F)][X11][X44][X1][PhLac][NMeA][Ala(pyrimidin-5-yl)])) returned an EC50 of 4.25 µM.

Consider `Cc1cccc(C[C@H]2C(=O)NCC34CC(C3)(C4)C(=O)O[C@@H](Cc3ccccc3)C(=O)N(C)[C@@H](C)C(=O)N[C@@H](Cc3cncnc3)C(=O)N[C@@H](CC3CC3)C(=O)N[C@@H](Cc3ccncc3F)C(=O)N[C@@H](CCC(C)C)C(=O)N2C)c1` [compound 279, cyclo(FLac-NMeA-PyrimAla-cPrA-4Pal2F-hL-NMePhe3Me-amBCP)] (cyclo([Ala(cPr)][X13][hLeu][NMePhe(3-Me)][X1][PhLac][NMeA][Ala(pyrimidin-5-yl)])), for which the concentration for a half-maximal effect (EC50) turned out to be 4.02 µM.

For `C[C@H]1C(=O)N[C@@H](Cc2cncnc2)C(=O)N[C@@H](CCCCF)C(=O)N[C@@H](Cc2ccccc2F)C(=O)N[C@@H](CCCCF)C(=O)N(C)[C@@H](Cc2ccccc2)C(=O)NCC23CC(C2)(C3)C(=O)O[C@@H](Cc2ccccc2)C(=O)N1C` [compound 128, cyclo(FLac-NMeA-PyrimAla-NleF-Phe2F-NleF-NMeF-amBCP)] (cyclo([NMeA][Ala(pyrimidin-5-yl)][X17][Phe(2-F)][X17][NMeF][X1][PhLac])), a half-maximal effect (EC50) was put at 3.72 µM.

Molecule `CCCC[C@@H]1NC(=O)[C@H](Cc2cccnc2F)NC(=O)[C@H](C)N(C)C(=O)[C@H](Cc2ccccc2)OC(=O)C23CC(CNC(=O)[C@H](Cc4cccnc4)N(C)C(=O)[C@H](CCCC)NC(=O)[C@H](Cc4ccccc4F)NC1=O)(C2)C3` [compound 117, cyclo(FLac-NMeA~3Pal2F-Nle-Phe2F-Nle-NMe3Pal-amBCP)] (cyclo([NMe3Pal][X1][PhLac][NMeA][X46][Nle][Phe(2-F)][Nle])) yielded an EC50 of 50.2 µM.

With `CCCC[C@@H]1NC(=O)[C@H](Cc2ccc(NC(=N)N)cc2)NC(=O)[C@H](CCCN(C)C(=N)NC)N(C)C(=O)[C@H](Cc2ccccc2)NC(=O)[C@H]2C[C@@H](CNC(=O)[C@H](Cc3ccccc3)N(C)C(=O)[C@H](CCCC)NC(=O)[C@H](Cc3ccc(OC)cc3)NC1=O)C2` [compound 384, cyclo(F-NMeArg1MeMe-Phe4Gn-Nle-TyrOMe-Nle-NMeF-c3amCblc)] (cyclo(F[X22][Phe(4-guanidino)][Nle]Y(Me)[Nle][NMeF][cBu(1-CO,cis-3-CH2NH)])), the EC50 was more than 50.8 µM.

On to `CC(C)CC[C@@H]1NC(=O)[C@H](Cc2ccccc2F)NC(=O)[C@H](CC2CC2)NC(=O)[C@H](Cc2cncnc2)NC(=O)[C@H](CCC(F)F)N(C)C(=O)[C@H](Cc2ccccc2)OC(=O)C23CC(CNC(=O)[C@H](Cc4ccccc4)N(C)C1=O)(C2)C3` [compound 217, cyclo(FLac-NMeNvaF2-PyrimAla-cPrA-Phe2F-hL-NMeF-amBCP)] (cyclo([Ala(cPr)][Phe(2-F)][hLeu][NMeF][X1][PhLac][NMeNva(5,5-F2)][Ala(pyrimidin-5-yl)])), for which the EC50 was 1.77 µM.

The molecule `CCCC[C@@H]1NC(=O)[C@H](Cc2cncnc2)NC(=O)[C@H](C)N(C)C(=O)[C@H](Cc2ccccc2)OC(=O)C23CC(CNC(=O)[C@H](Cc4cccnc4)N(C)C(=O)[C@H](CCCC)NC(=O)[C@H](Cc4ccccc4F)NC1=O)(C2)C3` [compound 237, cyclo(FLac-NMeA-PyrimAla-Nle-Phe2F-Nle-NMe3Pal-amBCP)] (cyclo([NMe3Pal][X1][PhLac][NMeA][Ala(pyrimidin-5-yl)][Nle][Phe(2-F)][Nle])) had an EC50 of 13.4 µM.

Consider `CC(C)CC[C@@H]1NC(=O)[C@H](Cc2c(F)ccnc2F)NC(=O)[C@H](CC2CC2)NC(=O)[C@H](Cc2cncnc2)NC(=O)[C@H](C)N(C)C(=O)[C@H](Cc2ccccc2)OC(=O)C23CC(CNC(=O)[C@H](Cc4ccccc4)N(C)C1=O)(C2)C3` [compound 295, cyclo(FLac-NMeA-PyrimAla-cPrA-3Pal26F2-hL-NMeF-amBCP)] (cyclo([Ala(cPr)][X5][hLeu][NMeF][X1][PhLac][NMeA][Ala(pyrimidin-5-yl)])), for which the EC50 was 29.6 µM.

`CON=C1C[C@@H](Cc2ccccc2)C(=O)N(C)[C@@H](C)C(=O)N[C@@H](Cc2cncnc2)C(=O)N[C@@H](CC2CC2)C(=O)N[C@@H](Cc2ccccc2F)C(=O)N[C@@H](CCC(C)(F)F)C(=O)N(C)[C@@H](Cc2ccccc2)C(=O)NCC23CC1(C2)C3` (single isomer, unassigned) [compound 177, cyclo(CPhe-NMeA-PyrimAla-cPrA-Phe2F-Nle3F2-NMeF-MeOximamBCP)] had an EC50 of 3.4 µM.

Regarding `C[C@H]1C(=O)N[C@@H](Cc2cncnc2)C(=O)N[C@@H](CC2CC2)C(=O)N[C@@H](Cc2ccccc2F)C(=O)N[C@@H](CCC(C)(C)F)C(=O)N(C)[C@@H](Cc2ccccc2)C(=O)NCC23CC(C2)(C3)C(=O)O[C@@H](Cc2ccccc2)C(=O)N1C` [compound 277, cyclo(FLac-NMeA-PyrimAla-cPrA-Phe2F-hL3F-NMeF-amBCP)] (cyclo([Ala(cPr)][Phe(2-F)][X11][NMeF][X1][PhLac][NMeA][Ala(pyrimidin-5-yl)])), the EC50 was 0.793 µM.

As for `CCCC[C@@H]1NC(=O)[C@H](Cc2cccnc2)NC(=O)[C@H](CCCNC(=N)N)NC(=O)[C@H](Cc2ccccc2)OC(=O)C23CC(CNC(=O)[C@H](Cc4ccccc4)N(C)C(=O)[C@H](CCCC)NC(=O)[C@H](Cc4ccccc4F)NC1=O)(C2)C3` [compound 212, cyclo(FLac-R-3Pal-Nle-Phe2F-Nle-NMeF-amBCP)] (cyclo([PhLac]R[3Pal][Nle][Phe(2-F)][Nle][NMeF][X1])), the EC50 worked out at 39.4 µM.

Take `CC(C)CC[C@@H]1NC(=O)[C@H](Cc2ccccc2F)NC(=O)[C@H](CC2CC2)NC(=O)[C@H](Cc2cncnc2)NC(=O)[C@H](CCCF)N(C)C(=O)[C@H](Cc2ccccc2)OC(=O)C23CC(CNC(=O)[C@H](Cc4ccccc4)N(C)C1=O)(C2)C3` [compound 216, cyclo(FLac-NMeNvaF-PyrimAla-cPrA-Phe2F-hL-NMeF-amBCP)] (cyclo([Ala(cPr)][Phe(2-F)][hLeu][NMeF][X1][PhLac][X35][Ala(pyrimidin-5-yl)])): a half-maximal effect (EC50) was put at 1.23 µM.

`CCCC[C@@H]1NC(=O)[C@H](Cc2cncnc2)NC(=O)[C@H](CCCn2ccnc2)N(C)C(=O)[C@H](Cc2ccccc2)OC(=O)C23CC(CNC(=O)[C@H](Cc4ccccc4)N(C)C(=O)[C@H](CCCC)NC(=O)[C@H](Cc4ccccc4F)NC1=O)(C2)C3` (single isomer, unassigned) [compound 222, cyclo(FLac-NMeNvalmid-PyrimAla-Nle-Phe2F-Nle-NMeF-amBCP)] displayed a concentration for a half-maximal effect (EC50) of more than 50.8 µM.

As a reminder, the EC50 is the midpoint of the concentration-response curve. Lower therefore signals greater potency.
